Bounds are passed on as bounds.

This test deals with T1, recombinant hRIPK2 protein (kinase domain aa 1-299-His-tagged) (Homo sapiens, UniProt O43353).
T1 construct: kinase domain aa 1-299-His-tagged; purchased Life Technologies PR7829A
T1 sequence (O43353 1-299): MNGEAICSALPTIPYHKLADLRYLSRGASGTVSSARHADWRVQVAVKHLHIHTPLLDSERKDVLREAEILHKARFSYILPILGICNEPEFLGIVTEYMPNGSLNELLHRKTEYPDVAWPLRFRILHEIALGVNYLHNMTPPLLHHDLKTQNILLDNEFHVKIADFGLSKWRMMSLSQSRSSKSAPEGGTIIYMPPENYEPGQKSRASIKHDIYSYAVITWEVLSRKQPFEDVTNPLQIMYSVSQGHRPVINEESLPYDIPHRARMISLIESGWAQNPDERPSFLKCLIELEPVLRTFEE
Description: RIPK2 AlphaLISA assay (displacement of bead-bound CZC-8004 from hRIPK2). Type of test: binding. Conditions: recombinant hRIPK2 kinase domain 10 nM, 2 h at 23° C. The essentials:
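His-tagged kinase domain (10 nM, as diluted) was mixed with compound (0.8% DMSO), acceptor beads bearing the probe CZC-8004 and Ni2+ donor beads. After 2 h at 23 °C, AlphaLISA signal was read. Loss of signal reflects displacement of the probe from RIPK2.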
(In Alpha technology, singlet oxygen from a donor bead excites a nearby acceptor bead.)
As a reminder, the IC50 is the point on the concentration scale where inhibition reaches its midpoint. On to `CCOc1cn2ncc3c2nc1OC[C@@H]1C[C@@H](OCCOC)C(=O)N1CCNc1cc(OC)cc-3c1` [Example 124, (12R,14S)-18-ethoxy-4-methoxy-12-(2-methoxyethoxy)-16-oxa-7,10,20,21,24-pentaazapentacyclo[15.5.2. 1^2,6.0^10,^14.0^20,^23]pentacosa-1(23),2,4,6(25),17(24),18,21-heptaen-11-one], for which the IC50 was less than 10 nM.

`COCCO[C@@H]1C[C@H]2COc3nc4c(cnn4cc3OC(C)C)-c3cc(cc(OC)c3)NCCN2C1=O` [Example 125, (12R,14S)-4-methoxy-12-(2-methoxyethoxy)-18-(propan-2-yloxy)-16-oxa-7,10,20,21,24-pentaazapentacyclo[15.5.2. 1^2,6.0^10,^14.0^20,^23]pentacosa-1(23),2,4,6(25),17(24),18,21-heptaen-11-one]: the IC50 was less than 10 nM.

With `COCCO[C@@H]1C[C@H]2COc3nc4c(cnn4cc3OCCN(C)C)-c3cc(cc(OC)c3)NCCN2C1=O` [Example 126, (12R,14S)-18-[2-(dimethylamino)ethoxy]-4-methoxy-12-(2-methoxyethoxy)-16-oxa-7,10,20,21,24-pentaazapentacyclo[15.5.2. 1^2,6.0^10,^14.0^20,^23]pentacosa-1(23),2,4,6(25),17(24),18,21-heptaen-11-one], the IC50 is less than 10 nM.

On to `COCCO[C@@H]1C[C@H]2COc3nc4c(cnn4cc3OCCCN(C)C)-c3cc(cc(OC)c3)NCCN2C1=O` [Example 127, (12R,14S)-18-[3-(dimethylamino)propoxy]-4-methoxy-12-(2-methoxyethoxy)-16-oxa-7,10,20,21,24-pentaazapentacyclo[15.5.2. 1^2,6.0^10,^14.0^20,^23]pentacosa-1(23),2,4,6(25),17(24),18,21-heptaen-11-one], for which the IC50 was less than 10 nM.

Regarding `COCCO[C@@H]1C[C@H]2COc3nc4c(cnn4cc3OC)-c3cc(O)cc(c3)NCCN2C1=O` [Example 128, (12R,14S)-4-hydroxy-18-methoxy-12-(2-methoxyethoxy)-16-oxa-7,10,20,21,24-pentaazapentacyclo[15.5.2. 1^2,6.0^10,^14.0^20,^23]pentacosa-1(23),2,4,6(25),17(24),18,21-heptaen-11-one], the IC50 is less than 10 nM.

Take `COCCO[C@@H]1C[C@H]2COc3nc4c(cnn4cc3OC)-c3cc(F)cc(c3)NCCN2C1=O` [Example 129, (12R,14S)-4-fluoro-18-methoxy-12-(2-methoxyethoxy)-16-oxa-7,10,20,21,24-pentaazapentacyclo[15.5.2.1^2,6.0^10,^14.0^20,^23]pentacosa-1(23),2,4,6(25),17(24),18,21-heptaen-11-one]: the IC50 was less than 10 nM.

`COCCO[C@@H]1C[C@H]2COc3nc4c(cnn4cc3OCC3CCO3)-c3cc(cc(OC)c3)NCCN2C1=O` (stereo partly drawn) [Example 130, (12R,14S)-4-methoxy-12-(2-methoxyethoxy)-18-(oxetan-2-ylmethoxy)-16-oxa-7,10,20,21,24-pentaazapentacyclo[15.5.2. 1^2,6.0^10,^14.0^20,^23]pentacosa-1(23),2,4,6(25),17(24),18,21-heptaen-11-one]: the IC50 is less than 10 nM.

Consider `COCCO[C@@H]1C[C@H]2COc3nc4c(cnn4cc3OC)-c3cc(cc(OC(C)C)c3)NCCN2C1=O` [Example 131, (12R,14S)-18-methoxy-12-(2-methoxyethoxy)-4-(propan-2-yloxy)-16-oxa-7,10,20,21,24-pentaazapentacyclo[15.5.2.1^2,6.0^10,^14.0^20,^23]pentacosa-1(23),2,4,6(25),17(24),18,21-heptaen-11-one], for which the half-maximal inhibitory concentration (IC50) was less than 10 nM.

As to `CCO[C@@H]1C[C@H]2COc3nc4c(cnn4cc3OC)-c3cc(cc(OC)c3)NCCN2C1=O` [Example 132, (12R,14S)-12-ethoxy-4,18-dimethoxy-16-oxa-7,10,20,21,24-pentaazapentacyclo[15.5.2. 1^2,6.0^10,^14.0^20,^23]pentacosa-1(23),2,4,6(25),17(24),18,21-heptaen-11-one], the IC50 is less than 10 nM.

For `COc1cc2cc(c1)-c1cnn3cc(OC)c(nc13)OC[C@@H]1C[C@@H](OC)C(=O)N1CCN2` [Example 133, (12R,14S)-4,12,18-trimethoxy-16-oxa-7,10,20,21,24-pentaazapentacyclo[15.5.2. 1^2,6.0^10,^14.0^20,^23]pentacosa-1(23),2,4,6(25),17(24),18, 21-heptaen-11-one], the IC50 was less than 10 nM.

On to `COc1cc2cc(c1)-c1cnn3cc(OC)c(nc13)OC[C@@H]1C[C@@H](OCC3COC3)C(=O)N1CCN2` [Example 134, (12R,14S)-4,18-dimethoxy-12-(oxetan-3-ylmethoxy)-16-oxa-7,10,20,21,24-pentaazapentacyclo[15.5.2. 1^2,6.0^10,^14.0^20,^23]pentacosa-1(23),2,4,6(25),17(24),18, 21-heptaen-11-one], for which the IC50 was less than 10 nM.

Turning to `COc1cc2cc(c1)-c1cnn3cc(OC)c(nc13)OC[C@@H]1C[C@@H](OCCN(C)C)C(=O)N1CCN2` [Example 135, (12R,14S)-12-[2-(dimethylamino)ethoxy]-4,18-dimethoxy-16-oxa-7,10,20,21,24-pentaazapentacyclo[15.5.2. 1^2,6.0^10,^14.0^20,^23]pentacosa-1(23),2,4,6(25),17(24),18, 21-heptaen-11-one], the half-maximal inhibitory concentration (IC50) is less than 10 nM.

With `COCCO[C@@H]1C[C@H]2COc3nc4c(cnn4cc3OC3CC4(COC4)C3)-c3cc(cc(OC)c3)NCCN2C1=O` [Example 136, (12R,14S)-4-methoxy-12-(2-methoxyethoxy)-18-{2-oxaspiro[3.3]heptan-6-yloxy}-16-oxa-7,10,20,21,24-pentaazapentacyclo[15.5.2. 1^2,6.0^10,^14.0^20,^23]pentacosa-1(23),2,4,6(25),17(24),18,21-heptaen-11-one], the half-inhibitory concentration (IC50) is less than 10 nM.

For the molecule `COCCOc1cn2ncc3c2nc1OC[C@@H]1C[C@@H](OCCOC)C(=O)N1CCNc1cc(OC)cc-3c1` [Example 137, (12R,14S)-4-methoxy-12,18-bis(2-methoxyethoxy)-16-oxa-7,10,20,21,24-pentaazapentacyclo[15.5.2. 1^2,6.0^10,^14.0^20,^23]pentacosa-1(23),2,4,6(25),17(24),18,21-heptaen-11-one], the IC50 is less than 10 nM.

As to `COCCO[C@@H]1C[C@H]2COc3nc4c(cnn4cc3OC3COC3)-c3cc(cc(OC)c3)NCCN2C1=O` [Example 138, (12R,14S)-4-methoxy-12-(2-methoxyethoxy)-18-(oxetan-3-yloxy)-16-oxa-7,10,20,21,24-pentaazapentacyclo[15.5.2. 1^2,6.0^10,^14.0^20,^23]pentacosa-1(23),2,4,6(25),17(24),18,21-heptaen-11-one], the half-inhibitory concentration (IC50) was less than 10 nM.

Regarding `COCCO[C@@H]1C[C@H]2COc3nc4c(cnn4cc3OCCO)-c3cc(cc(OC)c3)NCCN2C1=O` [Example 139, (12R,14S)-18-(2-hydroxyethoxy)-4-methoxy-12-(2-methoxyethoxy)-16-oxa-7,10,20,21,24-pentaazapentacyclo[15.5.2.1^2,6.0^1°,^14.0^2°,^23]pentacosa-1(23),2,4,6(25),17(24),18,21-heptaen-11-one], the IC50 was less than 10 nM.

With `CCOc1cc2cc(c1)-c1cnn3cc(OC)c(nc13)OC[C@@H]1C[C@@H](OCCOC)C(=O)N1CCN2` [Example 140, (12R,14S)-4-ethoxy-18-methoxy-12-(2-methoxyethoxy)-16-oxa-7,10,20,21,24-pentaazapentacyclo[15.5.2.1^2,6.0^10,^14.0^20,^23]pentacosa-1(23),2,4,6(25),17(24),18,21-heptaen-11-one], the IC50 was less than 10 nM.

(Values after US12630563B2, “Macrocyclic RIP2-kinase inhibitors” (Oncodesign S.A., priority 2020, dated 2026).)
